# Literature values, collected in US11911505B2, “Liquid formulations of hypoglycaemic sulfonamides” (AMMTEK, priority 2012, dated 2024).
# Settings: 27° C.
row,Compound,solubility in water [µg/mL]
1,COc1ccc2c(c1)C(=O)N(CCc1ccc(S(=O)(=O)NC(=O)NC3CCCCC3)cc1)C(=O)C2(C)C [gliquidone],2
2,CCC1=C(C)CN(C(=O)NCCc2ccc(S(=O)(=O)NC(=O)N[C@H]3CC[C@H](C)CC3)cc2)C1=O [glimepiride],38
3,CC(=O)c1ccc(S(=O)(=O)NC(=O)NC2CCCCC2)cc1 [acetohexamide],48
